Earlier results in US20090191194A1, “INHIBITION OF PROTEIN KINASE C ALPHA FOR THE TREATMENT OF CARDIOVASCULAR DISEASES” (Phenos GmbH, priority 2002, published 2009).

Assays:
PKC-alpha = PKC-alpha (Homo sapiens, UniProt P17252); settings: higher TPA concentration, for example 1.6 μM
[1] = target: cellular protein kinase C-alpha (Homo sapiens, UniProt P17252); settings: by changing the phosphorylation state of PKC-alpha
[2] = test system: protein kinase C isoform alpha
[3] = test system: protein kinase C isoform beta I
[4] = test system: protein kinase C isoform beta II

CCCCCCCCCCCCCC(=O)O[C@@H]1[C@@H](C)[C@@]2(O)[C@@H](C=C(CO)C[C@]3(O)C(=O)C(C)=C[C@@H]23)[C@@H]2C(C)(C)[C@]12OC(C)=O [TPA, 12-o-tetradecanoylphorbol-13-acetate]
PKC-alpha expression (PKC-alpha): completely inhibits

Cc1c(C)c2c(c(C)c1O)CC[C@@](C)(CCC[C@H](C)CCC[C@H](C)CCCC(C)C)O2 [alpha-tocopherol]
inactivation of cellular protein kinase C-alpha [1]: inactivate

cyclosporine A
expression of protein kinase C isoform alpha [2]: reduces the expression
expression of protein kinase C isoform beta I [3]: reduces the expression
expression of protein kinase C isoform beta II [4]: reduces the expression
